Consider 28 molecules from patent US6960574B2, “Antagonists of RF-amide neuropeptides” (University of Florida, priority 2002, dated 2005).

Structures are written as SMILES. Square brackets hold non-standard residues; d marks the D form. Peptide text beside a SMILES is read from it. * marks the point of attachment. ξ: configuration not given here. Dansyl = CN(C)c1cccc2c(S(=O)(=O)*)cccc12; ξL = CC(C)CC(N)C(=O)O

The assay has as its system receptor labeled by the radioiodinated analogue of 1 (4, [125I]-YLFQPQRF-NH2); neuropeptide FF receptor. Kind of assay: Competitive radioligand binding against 4 ([125I]Y8F-amide). The settings on record: mixture-based positional scanning; difference from averaged radioligand displacement of whole library (0); about 80 a.u. = 10-fold change in Ki.
`CN(C)c1cccc2c(S(=O)(=O)N[C@@H](CC(=O)O)C(=O)N[C@@H](Cc3ccc(O)cc3)C(=O)N[C@@H](CCCNC(=N)N)C(N)=O)cccc12` [Dansyl-DYR-amide] (Dansyl-Asp-Tyr-Arg-NH2): the “Relative Binding Index (RBI)” value is −7 a.u.

`CC[C@H](C)[C@H](NC(=O)[C@@H](NS(=O)(=O)c1cccc2c(N(C)C)cccc12)[C@@H](C)CC)C(=O)N[C@@H](CCCNC(=N)N)C(N)=O` [Dansyl-IIR-amide] (Dansyl-Ile-Ile-Arg-NH2): the “Relative Binding Index (RBI)” value is given as −5 a.u.

`CN(C)c1cccc2c(S(=O)(=O)N[C@@H](CCC(N)=O)C(=O)NCC(=O)N[C@@H](CCCNC(=N)N)C(N)=O)cccc12` [Dansyl-QGR-amide] (Dansyl-Gln-Gly-Arg-NH2): the “Relative Binding Index (RBI)” value amounted to 27 a.u.

Turning to `CSCC[C@H](NC(=O)[C@H](Cc1ccc(O)cc1)NS(=O)(=O)c1cccc2c(N(C)C)cccc12)C(=O)N[C@@H](CCCNC(=N)N)C(N)=O` [Dansyl-YMR-amide] (Dansyl-Tyr-Met-Arg-NH2), the “Relative Binding Index (RBI)” value was determined as 7 a.u.

Consider `CC(C)C[C@H](NC(=O)[C@H](CC(C)C)NS(=O)(=O)c1cccc2c(N(C)C)cccc12)C(=O)N[C@@H](CCCNC(=N)N)C(N)=O` [Dansyl-LLR-amide], for which the “Relative Binding Index (RBI)” value is on record as −40 a.u.

Turning to `CN(C)c1cccc2c(S(=O)(=O)NCC(=O)N[C@@H](Cc3ccccc3)C(=O)N[C@@H](CCCNC(=N)N)C(N)=O)cccc12` [Dansyl-GFR-amide] (Dansyl-Gly-Phe-Arg-NH2), the “Relative Binding Index (RBI)” value is reported as 24 a.u.

Take `CN(C)c1cccc2c(S(=O)(=O)NCC(=O)N[C@@H](Cc3ccc(O)cc3)C(=O)N[C@@H](CCCNC(=N)N)C(N)=O)cccc12` [Dansyl-GYR-amide] (Dansyl-Gly-Tyr-Arg-NH2): the “Relative Binding Index (RBI)” value was 24 a.u.

Take `CN(C)c1cccc2c(S(=O)(=O)N[C@@H](CC(=O)O)C(=O)N[C@@H](CC(N)=O)C(=O)N[C@@H](CCCNC(=N)N)C(N)=O)cccc12` [Dansyl-DNR-amide] (Dansyl-Asp-Asn-Arg-NH2): the “Relative Binding Index (RBI)” value is reported as −4 a.u.

As for `C[C@@H](O)[C@H](NS(=O)(=O)c1cccc2c(N(C)C)cccc12)C(=O)N[C@@H](Cc1c[nH]cn1)C(=O)N[C@@H](CCCNC(=N)N)C(N)=O` [Dansyl-THR-amide] (Dansyl-Thr-His-Arg-NH2), the “Relative Binding Index (RBI)” value is listed as −14 a.u.

As for `C[C@@H](O)[C@H](NC(=O)[C@H](CC(N)=O)NS(=O)(=O)c1cccc2c(N(C)C)cccc12)C(=O)N[C@@H](CCCNC(=N)N)C(N)=O` [Dansyl-NTR-amide] (Dansyl-Asn-Thr-Arg-NH2), the “Relative Binding Index (RBI)” value is on record as 18 a.u.

On to `CN(C)c1cccc2c(S(=O)(=O)N[C@@H](CC(N)=O)C(=O)N[C@@H](Cc3c[nH]c4ccccc34)C(=O)N[C@@H](CCCNC(=N)N)C(N)=O)cccc12` [Dansyl-NWR-amide] (Dansyl-Asn-Trp-Arg-NH2), for which the “Relative Binding Index (RBI)” value was determined as 22 a.u.

In the case of `CC[C@H](C)[C@H](NC(=O)[C@@H]1CCCN1S(=O)(=O)c1cccc2c(N(C)C)cccc12)C(=O)N[C@@H](CCCNC(=N)N)C(N)=O` [Dansyl-PIR-amide] (Dansyl-Pro-Ile-Arg-NH2), the “Relative Binding Index (RBI)” value is −41 a.u.

Turning to `CN(C)c1cccc2c(S(=O)(=O)N[C@@H](CO)C(=O)N[C@@H](Cc3ccc(O)cc3)C(=O)N[C@@H](CCCNC(=N)N)C(N)=O)cccc12` [Dansyl-SYR-amide] (Dansyl-Ser-Tyr-Arg-NH2), the “Relative Binding Index (RBI)” value is 15 a.u.

As to `CSCC[C@H](NS(=O)(=O)c1cccc2c(N(C)C)cccc12)C(=O)N[C@@H](CC(C)C)C(=O)N[C@@H](CCCNC(=N)N)C(N)=O` [Dansyl-MLR-amide] (Dansyl-Met-Leu-Arg-NH2), the “Relative Binding Index (RBI)” value is given as −52 a.u.

Consider `CC(C)CC(NC(=O)[C@H](C)NS(=O)(=O)c1cccc2c(N(C)C)cccc12)C(=O)N[C@@H](CCCNC(=N)N)C(N)=O` (stereo partly shown) [Dansyl-ALR-amide] (Dansyl-Ala-[ξL]-Arg-NH2), for which the “Relative Binding Index (RBI)” value is 4 a.u.

In the case of `CSCC[C@H](NC(=O)[C@@H](NS(=O)(=O)c1cccc2c(N(C)C)cccc12)[C@@H](C)O)C(=O)N[C@@H](CCCNC(=N)N)C(N)=O` [Dansyl-TMR-amide] (Dansyl-Thr-Met-Arg-NH2), the “Relative Binding Index (RBI)” value is on record as −9 a.u.

Turning to `C[C@@H](O)[C@H](NC(=O)[C@H](CO)NS(=O)(=O)c1cccc2c(N(C)C)cccc12)C(=O)N[C@@H](CCCNC(=N)N)C(N)=O` [Dansyl-STR-amide] (Dansyl-Ser-Thr-Arg-NH2), the “Relative Binding Index (RBI)” value came to 22 a.u.

For the molecule `CSCC[C@H](NS(=O)(=O)c1cccc2c(N(C)C)cccc12)C(=O)N[C@@H](Cc1ccccc1)C(=O)N[C@@H](CCCNC(=N)N)C(N)=O` [Dansyl-MFR-amide] (Dansyl-Met-Phe-Arg-NH2), the “Relative Binding Index (RBI)” value was −45 a.u.

Take `C[C@@H](O)[C@H](NC(=O)[C@H](Cc1ccccc1)NS(=O)(=O)c1cccc2c(N(C)C)cccc12)C(=O)N[C@@H](CCCNC(=N)N)C(N)=O` [Dansyl-FTR-amide] (Dansyl-Phe-Thr-Arg-NH2): the “Relative Binding Index (RBI)” value was determined as 15 a.u.

With `CN(C)c1cccc2c(S(=O)(=O)N[C@@H](Cc3ccc(O)cc3)C(=O)N[C@@H](CCC(=O)O)C(=O)N[C@@H](CCCNC(=N)N)C(N)=O)cccc12` [Dansyl-YER-amide] (Dansyl-Tyr-Glu-Arg-NH2), the “Relative Binding Index (RBI)” value was 7 a.u.

As to `C[C@H](NS(=O)(=O)c1cccc2c(N(C)C)cccc12)C(=O)N[C@@H](Cc1c[nH]cn1)C(=O)N[C@@H](CCCNC(=N)N)C(N)=O` [Dansyl-AHR-amide] (Dansyl-Ala-His-Arg-NH2), the “Relative Binding Index (RBI)” value is 6 a.u.

In the case of `CN(C)c1cccc2c(S(=O)(=O)N[C@@H](CCCNC(=N)N)C(=O)N[C@@H](Cc3c[nH]cn3)C(=O)N[C@@H](CCCNC(=N)N)C(N)=O)cccc12` [Dansyl-RHR-amide] (Dansyl-Arg-His-Arg-NH2), the “Relative Binding Index (RBI)” value came to 1 a.u.

With `CC(C)[C@H](NC(=O)[C@H](Cc1ccc(O)cc1)NS(=O)(=O)c1cccc2c(N(C)C)cccc12)C(=O)N[C@@H](CCCNC(=N)N)C(N)=O` [Dansyl-YVR-amide] (Dansyl-Tyr-Val-Arg-NH2), the “Relative Binding Index (RBI)” value amounted to 2 a.u.

Take `CC[C@H](C)[C@H](NC(=O)CNS(=O)(=O)c1cccc2c(N(C)C)cccc12)C(=O)N[C@@H](CCCNC(=N)N)C(N)=O` [Dansyl-GIR-amide] (Dansyl-Gly-Ile-Arg-NH2): the “Relative Binding Index (RBI)” value stood at 32 a.u.

Take `CC[C@H](C)[C@H](NS(=O)(=O)c1cccc2c(N(C)C)cccc12)C(=O)NCC(=O)N[C@@H](CCCNC(=N)N)C(N)=O` [Dansyl-IGR-amide] (Dansyl-Ile-Gly-Arg-NH2): the “Relative Binding Index (RBI)” value is listed as −6 a.u.

With `CN(C)c1cccc2c(S(=O)(=O)N[C@@H](Cc3ccccc3)C(=O)N[C@@H](Cc3c[nH]c4ccccc34)C(=O)N[C@@H](CCCNC(=N)N)C(N)=O)cccc12` [Dansyl-FWR-amide] (Dansyl-Phe-Trp-Arg-NH2), the “Relative Binding Index (RBI)” value was 18 a.u.

`CC[C@H](C)[C@H](NS(=O)(=O)c1cccc2c(N(C)C)cccc12)C(=O)N[C@@H](CC(C)C)C(=O)N[C@@H](CCCNC(=N)N)C(N)=O` [Dansyl-ILR-amide] (Dansyl-Ile-Leu-Arg-NH2): the “Relative Binding Index (RBI)” value is −19 a.u.

Consider `CN(C)c1cccc2c(S(=O)(=O)N[C@@H](CCCNC(=N)N)C(=O)N[C@@H](CC(N)=O)C(=O)N[C@@H](CCCNC(=N)N)C(N)=O)cccc12` [Dansyl-RNR-amide] (Dansyl-Arg-Asn-Arg-NH2), for which the “Relative Binding Index (RBI)” value was 8 a.u.
